Laboratory results: patent US20250288571A1 (Nested Therapeutics, Inc., priority 2024, published 2025)

Columns and labels:
[1] = test system: pMEK; test: pMEK AlphaLISA (MEK1 pS218/222), A549 cells, EGF stimulated; assay type: cell-based; conditions: Homo sapiens, 2 h compound, EGF 30 ng/ml 15 min
Procedure: (§1) Determination of pMEK IC50s
(§2) A549 cells were cultured in F12K/10% FBS media (ATCC CAT #21127022) and were seeded at 10000 cells/well and HCT116 cells were cultured in McCoy's 5A/10% FBS media (Gibco Cat #30-2007) were seeded at 15000 cells/well in 384 microplates (Corning CAT #3765). Cells were incubated overnight in a TC incubator. Compounds were serially diluted and added to cells for 2 h in a TC incubator. At the end of the 2 h EGF (R&D Systems 236-EG-200) was added at a final EGF concentration of 30 ng/ml and incubated for 15 minutes at 37° C. in a TC incubator. AlphaLisa (Perkin Elmer) was performed according to manufacturer's instructions (Perkin Elmer CAT #ALPHA.SF ULTRA MEK1 PS218/222). The percent (%) inhibition at each concentration of compound is calculated based on and relative to the AlphaLISA signal in the HPE and ZPE control wells contained within each assay plate. The ZPE control wells contain cells and DMSO as 0% inhibition, and the HPE control wells only contain cells and control compound (Sellekchem Staurosporin CAT #S1421) as 100% inhibition.

[2] = test system: pMEK; test: pMEK AlphaLISA (MEK1 pS218/222), HCT116 cells, EGF stimulated; assay type: cell-based; conditions: Homo sapiens, HCT-116, 2 h compound, EGF 30 ng/ml 15 min
Procedure: as §1, §2

[3] = test system: pERK Thr202/Tyr204; test: pERK HTRF detection of pERK Thr202/Tyr204, A549 cells; assay type: cell-based; conditions: Homo sapiens, 2 h compound
Procedure: (§3) pERK: Detection of pERK Thr202/Tyr204
(§4) A549 cultured in F-12K/10% FBS were seeded at 10000 cells/well, and HCT116 cultured in McCoy's 5A/10% FBS were seeded at 15000 cells/well cells into Corning 384-well plates, respectively. Cells were incubated overnight in a TC incubator. Compounds were serially diluted and added to cells for 2 h in a TC incubator. Cells were then lysed according to manufacture protocol (Cisbio CAT #: 64AERPEG). Cell lysate was mixed with phospho-ERK (Thr202/Tyr204) antibody solution at 5:1 (v:v). Lysate and antibody mixture were incubated overnight at room temperature. HTRF signal was read at two different wavelengths (665 nm and 620 nm) on a compatible HTRF reader.

[4] = test system: pERK Thr202/Tyr204; test: pERK HTRF detection of pERK Thr202/Tyr204, HCT116 cells; assay type: cell-based; conditions: Homo sapiens, HCT-116, 2 h compound
Procedure: as §3, §4

[5] = test system: HCT116 cells; test: HCT116 Cell Titer Glow assay (CTG); conditions: Homo sapiens, HCT-116, 72 h; for IC50: read-out: CTG IC50 (nM) Cell Line: HCT116.20; for viability at 1000 µM: read-out: CTG % cell viability 1000 uM HCT116.20, HCT116 cells, 72 hours, 1000 uM, percent cells remaining after treatment
Procedure: HCT116 and IPC298 Cell Titer Glow Assay (CTG)
HCT116 cells and IPC298 cells were diluted with culture medium to the desired density 500 cells/well and 40 μL of cell suspension were added into each well of 384-well cell culture plate. […] The plates were covered and stored at room temperature for 30 minutes without shaking and then the plates were transferred into a 37° C. 5% CO2 incubator overnight.
A 10 mM solution in dimethyl sulfoxide (DMSO) was prepared for each test compound. A 3 fold, 10-point dilution was prepared from the stock solution. 40 nl of each solution in 100% DMSO was added to the 384-well plate and diluted to a final 0.1% DMSO final concentration. The plates were then incubated for 72 hours (for both cell lines) at 37° C.
CellTiter-Glo® 2.0 Reagent (Promega, G9242) was removed from the refrigerator and equilibrated at room temperature (23° C.) for 60 minutes. The plates were then removed from the incubator and allowed to equilibrate to room temperature. 30 μL CellTiter-Glo® 2.0 Reagent were added to the assay plates, and spun 1 min/1000 rpm. The plates were allowed to stand for about 20 minutes before being read on Envision using a standard luminescence readout. DMSO was employed as negative control (High control, HC) and 1 uM Staurosporine was employed as positive control (Low control, LC).
The percent (%) inhibition at each concentration of compound was calculated based on the signal in the negative and positive control wells contained within each assay plate.

[6] = test system: IPC298 cells; test: IPC298 Cell Titer Glow assay (CTG); conditions: Homo sapiens, IPC-298, 72 h; for IC50: read-out: CTG IC50 (nM) Cell Line: IPC298.2

Compound	IC50 [1] [nM]	IC50 [2] [nM]	IC50 [3] [nM]	IC50 [4] [nM]	IC50 [5] [nM]	IC50 [6] [nM]	viability at 1000 µM [5] [%]	IC50 ([4]; numeric value) [nM]	viability at 100 µM ([6]; read-out: CTG % cell viability 100 uM IPC298.2, IPC298 cells, 72 hours, 100 uM, percent cells remaining after treatment) [%]
CNS(=O)(=O)Nc1nccc(Cc2cncc(Nc3ccc(Br)cc3F)c2C)c1F [Example 1, N-(4-bromo-2-fluorophenyl)-5-({3-fluoro-2-[(methylsulfamoyl)amino]pyridin-4-yl}methyl)-4-methylpyridin-3-amine]	< 10	< 10	< 10	< 10	< 10	< 10	–	–	–
CC(=O)Nc1nccc(Cc2cncc(Nc3ccc(Br)cc3F)c2C)c1F [Example 3, N-[4-({5-[(4-bromo-2-fluorophenyl)amino]-4-methylpyridin-3-yl}methyl)-3-fluoropyridin-2-yl]acetamide]	10 to 100	10 to 100	< 10	< 10	–	–	–	–	–
COC(=O)Nc1nccc(Cc2cncc(Nc3ccc(Br)cc3F)c2C)c1F [Example 4, methyl N-[4-({5-[(4-bromo-2-fluorophenyl)amino]-4-methylpyridin-3-yl}methyl)-3-fluoropyridin-2-yl]carbamate]	10 to 100	10 to 100	10 to 100	10 to 100	–	–	–	–	–
CNS(=O)(=O)Nc1ccc(Cc2cncc(Nc3ccc(Br)cc3F)c2C)cc1 [Example 5, N-(4-bromo-2-fluorophenyl)-4-methyl-5-({4-[(methylsulfamoyl)amino]phenyl}methyl)pyridin-3-amine]	< 10	< 10	< 10	< 10	10 to 100	< 10	–	–	–
CNS(=O)(=O)Nc1nccc(Cc2cncc(Nc3ccc(Cl)cc3F)c2C)c1F [Example 6, N-(4-chloro-2-fluorophenyl)-5-({3-fluoro-2-[(methylsulfamoyl)amino]pyridin-4-yl}methyl)-4-methylpyridin-3-amine]	< 10	< 10	< 10	< 10	10 to 100	–	–	–	–
Cc1c(Cc2ccnc(S(C)(=O)=O)c2F)cncc1Nc1ccc(Br)cc1F [Example 9, N-(4-bromo-2-fluorophenyl)-5-[(3-fluoro-2-methanesulfonylpyridin-4-yl)methyl]-4-methylpyridin-3-amine]	< 10	10 to 100	< 10	< 10	–	–	–	–	–
CCc1ccc(Nc2cncc(Cc3ccnc(NS(=O)(=O)NC)c3F)c2C)c(F)c1 [Example 10, N-(4-ethyl-2-fluorophenyl)-5-({3-fluoro-2-[(methylsulfamoyl)amino]pyridin-4-yl}methyl)-4-methylpyridin-3-amine]	< 10	< 10	< 10	< 10	< 10	< 10	–	–	–
CNS(=O)(=O)Nc1nccc(Cc2cncc(Nc3ccc(C#N)cc3F)c2C)c1F [Example 11, 3-fluoro-4-{[5-({3-fluoro-2-[(methylsulfamoyl)amino]pyridin-4-yl}methyl)-4-methylpyridin-3-yl]amino}benzonitrile]	10 to 100	< 10	< 10	< 10	–	10 to 100	31.8	–	–
CNC(=O)Nc1nccc(Cc2cncc(Nc3ccc(Br)cc3F)c2C)c1F [Example 12, 1-[4-({5-[(4-bromo-2-fluorophenyl)amino]-4-methylpyridin-3-yl}methyl)-3-fluoropyridin-2-yl]-3-methylurea]	< 10	< 10	< 10	< 10	–	–	–	–	–
CNS(=O)(=O)Nc1nccc(Cc2cncc(Oc3ccc(Cl)cn3)c2C)c1F [Example 27, {[4-({5-[(5-chloropyridin-2-yl)oxy]-4-methylpyridin-3-yl}methyl)-3-fluoropyridin-2-yl]sulfamoyl}(methyl)amine]	< 10	< 10	–	–	500 to 1000	10 to 100	–	–	–
Cc1c(Cc2ccnc(S(C)(=O)=O)c2F)cncc1Nc1ccc(Cl)cc1F [Example 28, N-(4-chloro-2-fluorophenyl)-5-[(3-fluoro-2-methanesulfonylpyridin-4-yl)methyl]-4-methylpyridin-3-amine]	10 to 100	10 to 100	–	–	> 1000	10 to 100	–	–	–
CNS(=O)(=O)Nc1nccc(Cc2cncc(Nc3ccc(Cl)cc3OC)c2C)c1F [Example 35, 4-[[5-(4-chloro-2-methoxy-anilino)-4-methyl-3-pyridyl]methyl]-3-fluoro-N-(methylsulfamoyl)pyridin-2-amine]	< 10	< 10	–	–	< 10	< 10	–	–	–
CNS(=O)(=O)Nc1nccc(Cc2cncc(Nc3ccc(Cl)cc3F)c2OC)c1F [Example 37, N-(4-chloro-2-fluorophenyl)-5-({3-fluoro-2-[(methylsulfamoyl)amino]pyridin-4-yl}methyl)-4-methoxypyridin-3-amine]	< 10	< 10	–	–	10 to 100	< 10	–	0.362	–
CNS(=O)(=O)Nc1nccc(Cc2cncc(Nc3ccc(Cl)cc3F)c2C(F)(F)F)c1F [Example 38, N-(4-chloro-2-fluorophenyl)-5-({3-fluoro-2-[(methylsulfamoyl)amino]pyridin-4-yl}methyl)-4-(trifluoromethyl)pyridin-3-amine]	< 10	< 10	–	–	< 10	< 10	–	0.241	–
CNS(=O)(=O)Nc1nccc(Cc2cncc(Nc3ccc(OC(F)(F)F)cc3F)c2C)c1F [Example 39]	< 10	< 10	–	–	10 to 100	< 10	–	0.354	–
CNS(=O)(=O)Nc1nccc(Cc2cncc(Oc3ccc(Cl)cc3F)n2)c1F [Example 40, 4-[[6-(4-chloro-2-fluoro-phenoxy)pyrazin-2-yl]methyl]-3-fluoro-N-(methylsulfamoyl)pyridin-2-amine]	> 1000	> 1000	–	–	> 1000	> 1000	101	> 1000	95.2
CNS(=O)(=O)Nc1nccc(Cc2cncc(Nc3nc4c(cc3F)OCCO4)c2C)c1F [Example 41, 7-fluoro-N-[5-[[3-fluoro-2-(methylsulfamoylamino)-4-pyridyl]methyl]-4-methyl-3-pyridyl]-2,3-dihydro-[1,4]dioxino[2,3-b]pyridin-6-amine]	< 10	< 10	–	–	100 to 500	10 to 100	–	2.32	–
CNS(=O)(=O)Nc1nccc(Cc2cncc(Nc3cc4c(cc3F)OCCO4)c2C)c1F [Example 42, 3-fluoro-4-[[5-[(6-fluoro-2,3-dihydro-1,4-benzodioxin-7-yl)amino]-4-methyl-3-pyridyl]methyl]-N-(methylsulfamoyl)pyridin-2-amine]	< 10	< 10	–	–	100 to 500	10 to 100	–	0.791	–
